By IC50 is commonly meant the midpoint of a concentration-inhibition curve.

SMILES strings stand for the structures. Read-outs that look alike come from different tables or passages of the source.

In experiment [1] the target is T1, human CA-II (Homo sapiens, UniProt P00918).
T1 construct: purchased Sigma-Aldrich C6165
The experiment in a line: Carbonic Anhydrase-II (CA-II) Fluorescence Polarization Tight Binding Assay-Kd Determination. As to conditions: inhibitor concentration 2.5 nM. On the procedure: Assays were conducted in a final volume of 100 μL in 50 mM Tris/HCl (pH 7.6), 100 mM Na2SO4 and 0.005% Tween-20 in a 96-well black assay plate. […] The assay plate was
The Kd binding was calculated using GraphPad Prism and Morrison tight binding ligand equation.
For orientation: Fluorescence polarisation rises when a labelled molecule tumbles more slowly, as on binding a larger partner.

The target of experiment [2] is T1, human CA-II. Kind of experiment: Carbonic Anhydrase-II (CA-II) Fluorimetric Assay-IC50 Determination. It counts as biochemical. As to conditions: for IC50: Kd ND, read-out: CA-II IC50. The gist of the method:
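Enzyme activity is read fluorimetrically at 25° C (ex 488 nm / em 538 nm) as the rate at which human CA-II hydrolyses fluorescein diacetate. The buffer is Tris/HCl (50 mM, pH 7.6) with 100 mM Na2SO4 and 0.005% Tween-20. Inhibitors run in duplicate over 11 threefold dilutions, […]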

Another experiment concerns the target T2, human CA-IV (Homo sapiens, UniProt P22748).
T2 construct: made in house; host or cells: Escherichia coli BL21(DE3)
Kind of experiment: Carbonic Anhydrase-IV (CA-IV) Fluorescence Polarization Assay-IC50 Determination. It counts as binding. As to conditions: for inhibition at 0.2 µM: CA-IV Min dose 200 nM, read-out: CA-IV: % Inh @ Min dose; for IC50: read-out: CA-IV IC50. How it is done:
Carbonic Anhydrase-IV (CA-IV) Fluorescence Polarization Assay-IC50 Determination
These cells were grown in Luria broth (LB) media (Biomyx) supplemented with 800 uM ZnCl2 at 37° C. until an O.D.600 of 0.7, at which point the cells were induced with 100 uM isopropyl-beta-D-thiogalactopyranoside (IPTG) for 20 hours at 20° C. The frozen pellet was resuspended in 50mM 2-morpholinoethanesulfonic acid (MES) at pH 6.0, 100 mM NaCl, 800 uM ZnCl2 and EDTA-Free protease inhibitors (Roche). The cells were lysed with a microfluidizer, the lysate was spun at 40,000 rpm for 45 minutes at 4° C., and the soluble fraction was dialyzed overnight at 4° C. in 50 mM MES pH 6.0, and 100 mM NaCl. The soluble fraction was then put over a 100 ml SP-Sepharose High Performance (GE Healthcare) column and eluted with a 50 mM MES pH 6.0, 750 mM NaCl gradient. The peak fractions were then concentrated, via an Amicon Ultra-4 10,000 MWCO (Millipore) spin column to 2.0 mL and loaded onto a Sephacryl S-100 High Resolution (GE Healthcare) column in 25 mM tris(hydroxymethyl)aminomethane hydrochloride (Tris-HCl) pH 7.0, and 100 mM NaCl. The peak fractions were then concentrated, via an Amicon Ultra-4 10,000 MWCO (Millipore) spin column, to 7.0 mg/mL and left exposed at room temperature overnight. […] T.; et al. Carbonic Anhydrase Inhibitors. Med. Res. Rev. […]
Assays were conducted in a final volume of 100 μL in 50 mM Tris/HCl (pH 7.6), 100 mM Na2SO4 and 0.005% Tween-20 in a 96-well black assay plate.

Setting [3] is: CA II Min dose 100 nM, read-out: CAII % Inh @ Min dose.

T2 sequence (P22748 19-284 limits assumed): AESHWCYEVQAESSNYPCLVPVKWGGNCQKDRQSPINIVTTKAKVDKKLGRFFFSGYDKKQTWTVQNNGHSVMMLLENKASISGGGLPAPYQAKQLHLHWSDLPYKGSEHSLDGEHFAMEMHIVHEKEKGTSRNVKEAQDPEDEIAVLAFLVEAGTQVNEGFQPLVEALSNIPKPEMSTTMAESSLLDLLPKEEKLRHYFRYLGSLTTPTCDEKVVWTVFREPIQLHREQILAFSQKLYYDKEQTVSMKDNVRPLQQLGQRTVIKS

`CC(C)CCNCc1nc(Cc2ccccc2)n(-c2ccc(S(N)(=O)=O)cc2F)n1` [Example T-59, 4-(5-benzyl-3-{[(3-methylbutyl)amino]methyl}-1H-124-triazol-1-yl)-3-fluorobenzenesulfonamide]: the inhibition at 0.0025 µM at human CA-II [1] worked out at 53%. Same read-out and setting: as for `NS(=O)(=O)c1ccc(-n2nc(CNCCOc3ccccc3)nc2Cc2ccccc2)c(F)c1` [Example T-64, 4-(5-benzyl-3-{[(2-phenoxyethyl)amino]methyl}-1H-124-triazol-1-yl)-3-fluorobenzenesulfonamide], the figure is 47%. As for `NS(=O)(=O)c1ccc(-n2nc(CNC3CCCCCC3)nc2Cc2ccccc2)c(F)c1` [Example T-57, 4-(5-benzyl-3-[(cycloheptylamino)methyl]-1H-124-triazol-1-yl}-3-fluorobenzenesulfonamide], at human CA-II [1], the inhibition at 0.0025 µM was 68%.

As for `NS(=O)(=O)c1ccc(-n2nc(CNCCc3cccc(F)c3)nc2Cc2ccccc2)c(F)c1` [Example T-48, 4-[5-benzyl-3-({[2-(3-fluorophenyl)ethyl]amino}methyl)-1H-124-triazol-1-yl]-3-fluorobenzenesulfonamide], at human CA-II [1], the inhibition at 0.0025 µM was 50%.

`CCC(NCc1nc(Cc2ccccc2)n(-c2ccc(S(N)(=O)=O)cc2F)n1)c1ccccc1` (stereo not drawn) [Example T-75, 4-(5-benzyl-3-{[(1-phenylpropyl)amino]methyl}-1H-124-triazol-1-yl)-3-fluorobenzenesulfonamide]: the inhibition at 0.0025 µM on human CA-II [1] is 51%. The same measure, in the same setting: as for `CC(Cn1cccn1)NCc1nc(Cc2ccccc2)n(-c2ccc(S(N)(=O)=O)cc2F)n1` (stereo not drawn) [Example T-72, 4-[5-benzyl-3-({[1-methyl-2-(1H-pyrazol-1-yl)ethyl]amino}methyl)-1H-124-triazol-1-yl]-3-fluorobenzenesulfonamide], the figure is 70%; as for `CN(CCn1cccn1)Cc1nc(Cc2ccccc2)n(-c2ccc(S(N)(=O)=O)cc2F)n1` [Example T-38, 4-[5-benzyl-3-({methyl[2-(1H-pyrazol-1-yl)ethyl]amino}methyl)-1H-124-triazol-1-yl]-3-fluorobenzenesulfonamide], 54%; as for `CCC(COC)NCc1nc(Cc2ccccc2)n(-c2ccc(S(N)(=O)=O)cc2F)n1` (stereo not drawn) [Example T-70, 4-[5-benzyl-3-({[1-(methoxymethyl)propyl]amino}methyl)-1H-124-triazol-1-yl]-3-fluorobenzenesulfonamide], 89%.

Regarding `NS(=O)(=O)c1ccc(-n2nc(CNCc3ccc(F)cc3)nc2Cc2ccccc2)c(F)c1` [Example T-56, 4-(5-benzyl-3-{[(4-fluorobenzyl)amino]methyl}-1H-124-triazol-1-yl)-3-fluorobenzenesulfonamide], the inhibition at 0.0025 µM on human CA-II [1] amounted to 50%. Take `COC1COCCN(Cc2nc(Cc3ccccc3)n(-c3ccc(S(N)(=O)=O)cc3F)n2)C1` (stereo not drawn) [Example T-40, 4-{5-benzyl-3-[(6-methoxy-14-oxazepan-4-yl)methyl]-1H-124-triazol-1-yl}-3-fluorobenzenesulfonamide]: the inhibition at 0.0025 µM at human CA-II [1] amounted to 49%. Same read-out and setting: the value for `C[C@@H](NCc1nc(Cc2ccccc2)n(-c2ccc(S(N)(=O)=O)cc2F)n1)c1ccccc1` [Example T-65] was 58%; that for `NS(=O)(=O)c1ccc(-n2nc(CNC3Cc4ccccc4C3)nc2Cc2ccccc2)c(F)c1` [Example T-76, 4-{5-benzyl-3-[(23-dihydro-1H-inden-2-ylamino)methyl]-1H-124-triazol-1-yl}-3-fluorobenzenesulfonamide] was 41%. As to `NS(=O)(=O)c1ccc(-n2nc(C(=O)N3CC4CCC3C4)nc2Cc2ccccc2)cc1` (stereo not drawn) [Example R-8, 4-[3-(2-azabicyclo[2.2.1]hept-2-ylcarbonyl)-5-benzyl-1H-124-triazol-1-yl]benzenesulfonamide], the inhibition at 0.1 µM on human CA-II [2] (setting [3]) and at human CA-II [2] (read-out: CA-II % at 100 nM) was 99% throughout. In addition, on human CA-IV, the inhibition at 0.2 µM is 56.9%. Also, the IC50 at human CA-IV was determined as 194 nM.

On to `NS(=O)(=O)c1ccc(-n2nc(CNC[C@@H](O)c3ccccc3)nc2Cc2ccccc2)c(F)c1` [Example T-46, 4-[5-benzyl-3-({[(2S)-2-hydroxy-2-phenylethyl]amino}methyl)-1H-124-triazol-1-yl]-3-fluorobenzenesulfonamide], for which the inhibition at 0.0025 µM on human CA-II [1] worked out at 57%.

As for `NS(=O)(=O)c1ccc(-n2nc(C(=O)N3CCOc4ccccc4C3)nc2Cc2ccccc2)cc1` [Example R-7, 4-[5-benzyl-3-(23-dihydro-14-benzoxazepin-4(5H)-ylcarbonyl)-1H-124-triazol-1-yl]benzenesulfonamide], the inhibition at 0.1 µM at human CA-II [2] (setting [3]) worked out at 101%. For the same compound, the IC50 on human CA-II [2] amounted to 3.68 nM. Besides, at human CA-IV, the inhibition at 0.2 µM turned out to be 59.1% and the IC50 worked out at 182 nM.

As to `CC(C)OCCNCc1nc(Cc2ccccc2)n(-c2ccc(S(N)(=O)=O)cc2F)n1` [Example T-79, 4-(5-benzyl-3-{[(2-isopropoxyethyl)amino]methyl}-1H-124-triazol-1-yl)-3-fluorobenzenesulfonamide], at human CA-II [1], the inhibition at 0.0025 µM is 44%. The same measure, in the same setting: the value for `COc1ccc(CCNCc2nc(Cc3ccccc3)n(-c3ccc(S(N)(=O)=O)cc3F)n2)cc1` [Example T-62, 4-[5-benzyl-3-({[2-(4-methoxyphenyl)ethyl]amino}methyl)-1H-124-triazol-1-yl]-3-fluorobenzenesulfonamide] was 51%.

As to `CN(C(=O)c1nc(Cc2ccccc2)n(-c2ccc(S(N)(=O)=O)cc2)n1)C1CCCCC1` [Example R-25, 1-[4-(aminosulfonyl)phenyl]-5-benzyl-N-cyclohexyl-N-methyl-1H-124-triazole-3-carboxamide], on human CA-II [2] (setting [3]), the inhibition at 0.1 µM turned out to be 101%. Besides, the IC50 on human CA-II [2] was 2.51 nM. Besides, at human CA-IV, the inhibition at 0.2 µM was 69.3% and the 50% inhibitory concentration (IC50) stood at 385 nM. Regarding `NS(=O)(=O)c1ccc(-n2nc(CNCc3cc(F)ccc3F)nc2Cc2ccccc2)c(F)c1` [Example T-60, 4-(5-benzyl-3-{[(25-difluorobenzyl)amino]methyl}-1H-124-triazol-1-yl)-3-fluorobenzenesulfonamide], the inhibition at 0.0025 µM at human CA-II [1] worked out at 57%. On to `COC[C@H](C)NCc1nc(Cc2ccccc2)n(-c2ccc(S(N)(=O)=O)cc2F)n1` [Example T-80, 4-[5-benzyl-3-({[(1S)-2-methoxy-1-methylethyl]amino}methyl)-1H-124-triazol-1-yl]-3-fluorobenzenesulfonamide], for which, at human CA-II [1], the inhibition at 0.0025 µM turned out to be 73%. Take `NS(=O)(=O)c1ccc(-n2nc(C(=O)NCC3(c4ccccc4)CC3)nc2Cc2ccccc2)cc1` [Example R-12, 1-[4-(aminosulfonyl)phenyl]-5-benzyl-N-[(1-phenylcyclopropyl)methyl]-1H-124-triazole-3-carboxamide]: at human CA-II [2] (setting [3]), the inhibition at 0.1 µM stood at 101%. Moreover, the inhibition at 0.1 µM at human CA-II [2] (read-out: CA-II % at 100 nM) worked out at 101%. Moreover, at human CA-IV, the inhibition at 0.2 µM was found to be 62.3% and the IC50 was 206 nM.

Turning to `NS(=O)(=O)c1ccc(-n2nc(C(=O)N3CC(Oc4ccccc4)C3)nc2Cc2ccccc2)cc1` [Example R-15, 4-(5-benzyl-3-[(3-phenoxyazetidin-1-yl)carbonyl]-1H-124-triazol-1-yl)benzenesulfonamide], the inhibition at 0.1 µM on human CA-II [2] (setting [3]) and at human CA-II [2] (read-out: CA-II % at 100 nM) was 96% throughout. Besides, the inhibition at 0.2 µM at human CA-IV is 60.9%. The IC50 on human CA-IV came out at 220 nM. For the compound `CCCCN(CC)C(=O)c1nc(Cc2ccccc2)n(-c2ccc(S(N)(=O)=O)cc2)n1` [Example R-14, 1-(4-(aminosulfonyl)phenyl]-5-benzyl-N-butyl-N-ethyl-1H-124-triazole-3-carboxamide], the inhibition at 0.1 µM at human CA-II [2] (setting [3]) is 100%. The inhibition at 0.1 µM on human CA-II [2] (read-out: CA-II % at 100 nM) came out at 100%. Moreover, on human CA-IV, the inhibition at 0.2 µM was 59.7% and the IC50 came to 215 nM.

As to `CN(CC(O)c1ccccc1)C(=O)c1nc(Cc2ccccc2)n(-c2ccc(S(N)(=O)=O)cc2)n1` (stereo not drawn) [Example R-9, 1-[4-(aminosulfonyl)phenyl]-5-benzyl-N-(2-hydroxy-2-phenylethyl)-N-methyl-1H-124-triazole-3-carboxamide], the inhibition at 0.1 µM at human CA-II [2] (setting [3]) was 99%. Moreover, the inhibition at 0.1 µM on human CA-II [2] (read-out: CA-II % at 100 nM) is 99%. For the same compound, on human CA-IV, the inhibition at 0.2 µM is 58% and the IC50 amounted to 198 nM.

For the origin of these results see US20100256357A1, “HETEROCYCLES USEFUL AS INHIBITORS OF CARBONIC ANHYDRASE” (Agouron Pharmaceuticals, Inc., priority 2006, published 2010).
